# According to patent US20240344145A1, “PHARMACOGENOMICS SCORE TO MAKE DECISIONS ON THERAPY AUGMENTATION IN AML” (University of Florida Research Foundation, Incorporated, priority 2021, published 2024):
# System: ara-C metabolic pathway genes
# Assay: Association of ara-C pathway SNP genotypes with MRD1, EFS and OS in AML02 (logistic regression and Cox models; also within LDAC and HDAC arms)
# Set-up: species or system human
# Details: within arm of AML02
# Description: Genomic DNA from patients enrolled in the multi-site St. Jude AML02 trial was genotyped for 155 SNPs in 16 genes of relevance to ara-C pharmacology using sequenom iPlex platform that uses MALDI-TOF based chemistry at University of Minnesota, Biomedical Genomics Center. SNPs were selected based on previously reported studies. For SNPs lacking literature on genetic variation, SNPs were selected to capture LD blocks (European and African ancestry) on a gene. Of 155 SNPs, 1 SNP was excluded due to low call rate (<90%), 47 SNPs were excluded due to minimum allele frequency of less than 5%, 11 SNPs were excluded due to high LD (r^2>0.9) with other SNPs; two SNPs were excluded because of deviation from Hardy-Weinberg equilibrium. Genotype for the COG-AAML0531 cohort for the selected SNPs was obtained using sequenom platform or TaqMan genotyping assays, and for a few SNPs was extracted from the data available on Illumina 2.5 Omni array. Genotype calls from multiple platforms were confirmed across multiple samples randomly collected from the cohort.
# SNP genotype groups in three different modes of inheritance (additive, dominant, and recessive) were tested for association with MRD1 using logistic regression models. Odds ratio (OR) and 95% confidence interval (CI) were calculated for each test. SNPs with association P-value<0.05 were considered significant. Cox-proportional hazard models were used to evaluate association of genotype groups with EFS or OS. Hazard ratio (HR) and 95% CI were calculated for each test. p-value<0.05 was considered statistically significant. Given initial risk group assignments are well-established prognostic factors associated with outcome, outcome association analysis of SNPs with and without adjusting for risk group was also performed to identify SNPs that are associated with outcome independent of risk group.
# SNPs with p<0.15 in risk-adjusted univariate evaluation with clinical endpoints (MRD1, EFS, and OS) were tested for all possible combinations with a maximum of three SNPs per model in multivariable logistic regression models for association with MRD1 and Cox-proportional hazard models for association with EFS and OS. Analysis for up to 3 SNP combinations was restricted due to computational challenges as increasing the maximum number of SNPs per model drastically increases the number of models as 1000 permutations were run for each model. Models were ordered according to their Bayesian Information Criterion (BIC) and weight in favor of each model. One thousand permutation tests were performed for each model to determine statistical significance. The six unique SNPs from the most significant models for EFS and MRD1 were included in the development of the ACS10 score as described in the results section.
# The multicenter AML02 clinical trial randomly assigned subjects to receive low dose ara-C (LDAC: 100 mg/m^2; n=91 patients) or high dose ara-C(HDAC: 3 g/m^2; n=75 patients) in combination with daunorubicin and etoposide as the first course of chemotherapy as described above in patient cohort section. Thus, the association of SNPs with outcome within each arm separately was also explored (Table 5).
# [1] = rs4917384 (NT5C2, WT C, VAR T), MOI D
# [2] = rs4980345 (SLC28A1, WT G, VAR A), MOI A
# [3] = rs6552622 (DCTD, WT C, VAR G), MOI D
# [4] = rs6742272 (RRM2, WT C, VAR G), MOI A
# [5] = rs6834938 (DCTD, WT C, VAR T), MOI R
# [6] = rs6946062 (NT5C3, WT T, VAR C), MOI D
# [7] = rs7533657 (CTPS1, WT C, VAR T), MOI R
# [8] = rs7543016 (CMPK1, WT C, VAR G), MOI R
# [9] = rs7776847 (NT5C3, WT G, VAR A), MOI A
# [10] = rs7874528 (SLC28A3, WT G, VAR T), MOI D
# [11] = rs10252880 (NT5C3, WT G, VAR C), MOI A
# [12] = rs10767827 (RRM1, WT G, VAR T), MOI D
# [13] = rs10786736 (NT5C2, WT G, VAR C), MOI D
# [14] = rs10916819 (CDA, WT A, VAR G), MOI D
# [15] = rs11140525 (SLC28A3, WT G, VAR A), MOI A
# [16] = rs11191558 (NT5C2, WT G, VAR A), MOI D
# [17] = rs11737887 (DCTD, WT T, VAR C), MOI A
# [18] = rs12554292 (SLC28A3, WT C, VAR T), MOI D
# [19] = rs12806698 (RRM1, WT C, VAR A), MOI D
# [20] = rs17103168 (CMPK1, WT A, VAR G), MOI D
compound,measurement,setting,value
"Nc1ccn([C@@H]2O[C@H](CO)[C@@H](O)[C@@H]2O)c(=O)n1 [LDAC, cytarabine]",EFS HR (95% CI),[1],1.04 (0.76-1.44)
same,MRD1 OR (95% CI),[1],0.78 (0.51-1.19)
same,OS HR (95% CI),[1],0.87 (0.58-1.29)
same,EFS HR (95% CI),[2],1.81 (1-3.26)
same,MRD1 OR (95% CI),[2],1.08 (0.45-2.58)
same,OS HR (95% CI),[2],1.84 (0.95-3.55)
same,EFS HR (95% CI),[3],1.05 (0.7-1.59)
same,MRD1 OR (95% CI),[3],0.86 (0.49-1.49)
same,OS HR (95% CI),[3],1.22 (0.77-1.94)
same,EFS HR (95% CI),[4],1.5 (0.95-2.36)
same,MRD1 OR (95% CI),[4],0.49 (0.25-0.96)
same,OS HR (95% CI),[4],1.43 (0.83-2.48)
same,EFS HR (95% CI),[5],1.4 (0.83-2.35)
same,MRD1 OR (95% CI),[5],1.92 (0.82-4.48)
same,OS HR (95% CI),[5],1.75 (1.02-3)
same,EFS HR (95% CI),[6],0.75 (0.54-1.04)
same,MRD1 OR (95% CI),[6],0.94 (0.61-1.46)
same,OS HR (95% CI),[6],0.58 (0.39-0.87)
same,EFS HR (95% CI),[7],1.12 (0.62-2.02)
same,MRD1 OR (95% CI),[7],0.9 (0.36-2.27)
same,OS HR (95% CI),[7],1.05 (0.51-2.16)
same,EFS HR (95% CI),[8],0.85 (0.55-1.32)
same,MRD1 OR (95% CI),[8],2.01 (1.13-3.58)
same,OS HR (95% CI),[8],0.67 (0.37-1.23)
same,EFS HR (95% CI),[9],1.15 (0.64-2.09)
same,MRD1 OR (95% CI),[9],0.92 (0.42-2)
same,OS HR (95% CI),[9],1.91 (1.01-3.62)
same,EFS HR (95% CI),[10],0.97 (0.66-1.44)
same,MRD1 OR (95% CI),[10],1.93 (1.12-3.32)
same,OS HR (95% CI),[10],0.89 (0.54-1.45)
same,EFS HR (95% CI),[11],1.21 (0.74-1.98)
same,MRD1 OR (95% CI),[11],0.97 (0.51-1.82)
same,OS HR (95% CI),[11],1.98 (1.13-3.44)
same,EFS HR (95% CI),[12],1.09 (0.76-1.57)
same,MRD1 OR (95% CI),[12],0.98 (0.6-1.61)
same,OS HR (95% CI),[12],0.97 (0.61-1.53)
same,EFS HR (95% CI),[13],1.45 (1.03-2.03)
same,MRD1 OR (95% CI),[13],1.1 (0.66-1.83)
same,OS HR (95% CI),[13],1.37 (0.9-2.08)
same,EFS HR (95% CI),[14],1.77 (1.14-2.75)
same,MRD1 OR (95% CI),[14],1.75 (1.08-2.83)
same,OS HR (95% CI),[14],2.05 (1.12-3.74)
same,EFS HR (95% CI),[15],0.98 (0.63-1.54)
same,MRD1 OR (95% CI),[15],1.44 (0.81-2.58)
same,OS HR (95% CI),[15],1.16 (0.68-1.97)
same,EFS HR (95% CI),[16],1.49 (1.05-2.1)
same,MRD1 OR (95% CI),[16],0.96 (0.56-1.64)
same,OS HR (95% CI),[16],1.32 (0.85-2.05)
same,EFS HR (95% CI),[17],1.39 (0.73-2.66)
same,MRD1 OR (95% CI),[17],0.95 (0.4-2.25)
same,OS HR (95% CI),[17],1.76 (0.8-3.86)
same,EFS HR (95% CI),[18],0.71 (0.42-1.2)
same,MRD1 OR (95% CI),[18],1.26 (0.72-2.21)
same,OS HR (95% CI),[18],0.78 (0.43-1.42)
same,EFS HR (95% CI),[19],0.98 (0.69-1.39)
same,MRD1 OR (95% CI),[19],1.14 (0.72-1.8)
same,OS HR (95% CI),[19],1.19 (0.79-1.79)
same,EFS HR (95% CI),[20],0.96 (0.69-1.32)
same,MRD1 OR (95% CI),[20],0.55 (0.35-0.87)
same,OS HR (95% CI),[20],1.03 (0.69-1.52)
